Like-named read-outs stand apart in the source and are kept apart here.
Experiments:
[1] = tested on: K562; assay: In vitro IC50 against human cancer cells (Table 11), K562; format: cell-based; conditions: read-out: Human cancer cell lines (IC50, μM) K562
[2] = tested on: tubulin; assay: In vitro % inhibition of tubulin polymerization (Table 12; absorbance at 340 nm, Vmax); format: biochemical
Method: A 96-well half-area clear flat-bottom microplate (Corning© #3697) is pre-heated in a plate reader (Cytation 3, BioTek) at 37° C. for 15 minutes prior to the start of each assay. Kinase buffer (80 mM PIPES pH 6.9, 2 mM MgCl2, 0.5 mM EGTA, 15% glycerol, 1 mM GTP) is prepared from stock solutions and placed on ice. Inhibitors of this application are prepared to 10 μM concentrations in buffer (80 mM PIPES pH 6.9, 2 mM MgCl2, 0.5 mM EGTA, 5% DMSO) from DMSO stock solutions. After the assay plate is pre-warmed, 10 μL of inhibitor or buffer control is added to selected wells. Every assay contained a kinase only negative control for normalization of data, and a known compound positive control. The assay plate is incubated at 37° C. for 3 minutes. During this time, a frozen aliquot of the kinase (10 mg/mL) in buffer (80 mM PIPES pH 6.9, 2 mM MgCl2, 0.5 mM EGTA) is defrosted by placing in a room temperature water bath. Once thawed, 200 μL of the kinase is mixed with 420 μL of the ice-cold kinase buffer (3 mg/mL kinase in 80 mM PIPES, pH 6.9, 2 mM MgCl2, 0.5 mM EGTA, 1 mM GTP, 10.2% glycerol). To a 96-well plate on ice, aliquots of 100 μL kinase is added to each well. From this plate, 90 μL of the kinase is immediately pipetted into all sample wells of the warmed assay plate using a multi-channel pipette. The assay plate is immediately put in the reader at 37° C. and shook for 5 s with orbital shaking at medium speed. The reader records the absorbance at 340 nm every 15 s for 30 min.
The resulting absorbance curves are normalized by subtracting each data point by the absorbance at time 0.

[3] = tested on: MV-4-11; assay: In vitro IC50 against human cancer cells (Table 11), MV-4-11; format: cell-based; conditions: MV4-11, read-out: Human cancer cell lines (IC50, μM) MV-4-11
[4] = tested on: MOLM-13; assay: In vitro IC50 against human cancer cells (Table 11), MOLM-13; format: cell-based; conditions: read-out: Human cancer cell lines (IC50, μM) MOLM-13
[5] = biological target: T1, JAK3 (Homo sapiens, UniProt P52333); assay: In vitro JAK3 inhibition, biochemical IC50 (no preincubation); conditions: Table 8
T1 sequence (P52333 1-1124): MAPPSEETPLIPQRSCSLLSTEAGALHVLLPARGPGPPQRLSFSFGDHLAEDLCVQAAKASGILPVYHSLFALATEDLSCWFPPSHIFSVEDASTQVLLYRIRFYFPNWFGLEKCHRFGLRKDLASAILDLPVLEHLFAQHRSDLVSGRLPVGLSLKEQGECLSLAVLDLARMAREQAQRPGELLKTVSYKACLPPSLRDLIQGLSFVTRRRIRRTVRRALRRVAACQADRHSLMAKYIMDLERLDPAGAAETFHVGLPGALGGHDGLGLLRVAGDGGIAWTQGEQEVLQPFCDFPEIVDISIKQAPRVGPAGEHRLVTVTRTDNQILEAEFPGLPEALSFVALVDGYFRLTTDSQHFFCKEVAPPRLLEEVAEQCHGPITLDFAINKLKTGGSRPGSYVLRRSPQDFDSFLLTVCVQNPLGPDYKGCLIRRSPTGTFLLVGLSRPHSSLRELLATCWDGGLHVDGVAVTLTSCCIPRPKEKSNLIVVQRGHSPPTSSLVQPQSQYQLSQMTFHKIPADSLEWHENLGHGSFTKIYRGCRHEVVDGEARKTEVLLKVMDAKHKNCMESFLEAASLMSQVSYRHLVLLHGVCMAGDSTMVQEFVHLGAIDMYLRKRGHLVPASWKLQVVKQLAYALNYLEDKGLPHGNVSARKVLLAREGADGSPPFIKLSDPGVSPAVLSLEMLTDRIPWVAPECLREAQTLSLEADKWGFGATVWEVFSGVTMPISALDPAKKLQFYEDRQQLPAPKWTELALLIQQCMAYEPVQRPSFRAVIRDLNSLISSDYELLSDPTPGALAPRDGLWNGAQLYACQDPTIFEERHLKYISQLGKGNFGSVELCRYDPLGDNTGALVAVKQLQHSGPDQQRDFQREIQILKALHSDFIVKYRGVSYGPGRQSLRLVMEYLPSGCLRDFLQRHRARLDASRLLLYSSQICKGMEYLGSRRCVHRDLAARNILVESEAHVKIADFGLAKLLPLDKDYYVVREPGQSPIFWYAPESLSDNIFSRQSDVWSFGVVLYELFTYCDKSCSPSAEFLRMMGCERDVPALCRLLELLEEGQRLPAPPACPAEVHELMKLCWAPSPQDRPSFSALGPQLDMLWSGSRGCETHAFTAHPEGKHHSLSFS
Method: (§1) In vitro BTK and JAK3 inhibition studies are shown in Table 7 and Table 8 (no preincubation).

[6] = biological target: T2, BTK (Homo sapiens, UniProt Q06187); assay: In vitro BTK inhibition, biochemical IC50 (no preincubation)
Method: IC50 Values (nM) for the Inhibition of BTK Activity
as §1

[7] = tested on: RL cells; assay: IC50 of Ibrutinib analogs against human cancer cells, RL cells (Table 14); format: cell-based; conditions: Homo sapiens, RL
Method: 1×10^4 cells (NHF cells)/well are plated in 96-well assay plates in culture medium. […] After 24 hrs, test compounds and vehicle controls are added to appropriate wells so the final volume is 100p in each well. The cells are cultured for the desired test exposure period (72 hrs) at 37° C. and 5% CO2. The assay plates are removed from 37° C. incubator and 20 μl/well of CellTiter-Blue® Reagent is added. The plates are incubated using standard cell culture conditions for 1-4 hours and the plates are shaken for 10 seconds and record fluorescence at 560/590 nm. […] Therapeutic index=(IC50 human fibroblasts/IC50 […] )

[8] = tested on: normal pooled human fibroblasts; assay: IC50 of Ibrutinib analogs against normal human cells, pooled human fibroblasts (Table 14); format: cell-based; conditions: Fibroblast, TABLE 9
Method: Anti-cancer efficacy of exemplary compounds of this application is assessed in vitro in different cancer cell lines. Cell viability is examined following treatment at various concentration of inhibitor (0.097656-50 μM) using a cell Titer-Blue cell viability assay. 1×10^4 cells (NHF cells)/well are plated in 96-well assay plates in culture medium. All cells are grown in DMEM, IMDM and RPMI-1640 supplemented with 10% FBS. After 24 hrs, test compounds and vehicle controls are added to appropriate wells so the final volume is […] in each well. The cells are cultured for the desired test exposure period (72 hrs) at 37° C. and 5% CO2. The assay plates are removed from 37° C. incubator and 20 μl/well of CellTiter-Blue® Reagent is added. The plates are incubated using standard cell culture conditions for 1-4 hours and the plates are shaken for 10 seconds and record fluorescence at 560/590 nm.
Therapeutic index=(IC50 human fibroblasts/IC50 RLcells)

[9] = biological target: T2, BTK; assay: Total BTK degradation assay (Total BTK-HTRF) in RAMOS cells; format: cell-based
Method: A Total BTK-HTRF assay (Cisbio Total BTK cat #63ADK064PEG) was performed to quantitate the ability of test compounds to degrade BTK protein levels in RAMOS cells. This total protein assay monitors the steady state protein level in a sandwich assay format using two different specific antibodies after lysis of the cell-membrane. The antibodies recognise two different epitopes on BTK and are labelled with Eu3^+-cryptate (donor) and d2 (acceptor). […] The specific signal modulates positively in proportion to the total concentration of BTK.
In order to evaluate the degradation of BTK by test compounds, a total BTK degradation assay was performed (Cisbio Total BTK cat #63ADK064PEG). The frozen stock solutions of the two different BTK antibodies were diluted 20-fold with the detection buffer and pre-mixed before use in the assay. Supplemented lysis buffer (4×) was prepared by diluting the blocking reagent solution 25-fold with lysis buffer (4×) and mixing gently.
were plated at a density of 50K cells/well (8 uL) in RPMI medium with 10% FBS into 384-well white detection plates. […] The plate was read on an Biotek Synergy Neo2 plate reader using 330 nm excitation, 620 nm-donor emission and 670 nm-acceptor emission.

[10] = biological target: FGFR1 (Homo sapiens, UniProt P11362); assay: In vitro kinase inhibition studies (Table 9), FGFR1; format: biochemical
[11] = biological target: FGFR4 (Homo sapiens, UniProt P22455); assay: In vitro kinase inhibition studies (Table 9), FGFR4; format: biochemical
[12] = biological target: T2, BTK; assay: BTK washout experiment (residual activity after 400-fold dilution); format: biochemical; conditions: 6-h incubation of 50 nM BTK with 177 nM compound, relative to DMSO alone
Method: After a 3-h incubation of 40 nM BTK in the presence of 296 nM of compound Compound 5-1, a 400-fold dilution was performed to remove excess inhibitor.
By way of contrast, a “washout” experiment performed with ARQ-531 gives a very different result, because this compound lacks a warhead and is known to inhibit BTK reversibly. After a 6-h incubation of 50 nM BTK in the presence of 177 nM of ARQ-531, a 400-fold dilution was performed to remove excess inhibitor. […] This indicates to one of ordinary skill in the art that the enzyme was not inhibited irreversibly during the incubation with ARQ-531.

T2 sequence (Q06187 whole entry, species assumed): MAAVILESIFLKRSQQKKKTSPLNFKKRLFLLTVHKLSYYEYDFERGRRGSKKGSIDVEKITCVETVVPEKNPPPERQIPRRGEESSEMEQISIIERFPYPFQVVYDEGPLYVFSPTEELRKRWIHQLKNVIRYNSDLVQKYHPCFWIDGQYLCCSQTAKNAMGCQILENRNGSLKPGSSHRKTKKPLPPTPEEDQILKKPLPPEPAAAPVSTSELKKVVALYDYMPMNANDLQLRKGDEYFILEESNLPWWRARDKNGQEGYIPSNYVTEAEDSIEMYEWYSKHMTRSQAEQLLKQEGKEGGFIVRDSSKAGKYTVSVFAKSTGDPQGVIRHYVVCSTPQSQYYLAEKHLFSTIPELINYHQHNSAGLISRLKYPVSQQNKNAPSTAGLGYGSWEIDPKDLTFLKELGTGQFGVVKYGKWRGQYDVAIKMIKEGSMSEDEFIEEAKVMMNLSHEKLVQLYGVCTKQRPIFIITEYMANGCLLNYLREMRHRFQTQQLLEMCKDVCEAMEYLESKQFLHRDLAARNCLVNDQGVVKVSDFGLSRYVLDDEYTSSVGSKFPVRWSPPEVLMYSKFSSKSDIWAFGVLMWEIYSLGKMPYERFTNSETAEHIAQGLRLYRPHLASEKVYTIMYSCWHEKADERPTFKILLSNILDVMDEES
FGFR1, sequence (P11362 22-822, species assumed): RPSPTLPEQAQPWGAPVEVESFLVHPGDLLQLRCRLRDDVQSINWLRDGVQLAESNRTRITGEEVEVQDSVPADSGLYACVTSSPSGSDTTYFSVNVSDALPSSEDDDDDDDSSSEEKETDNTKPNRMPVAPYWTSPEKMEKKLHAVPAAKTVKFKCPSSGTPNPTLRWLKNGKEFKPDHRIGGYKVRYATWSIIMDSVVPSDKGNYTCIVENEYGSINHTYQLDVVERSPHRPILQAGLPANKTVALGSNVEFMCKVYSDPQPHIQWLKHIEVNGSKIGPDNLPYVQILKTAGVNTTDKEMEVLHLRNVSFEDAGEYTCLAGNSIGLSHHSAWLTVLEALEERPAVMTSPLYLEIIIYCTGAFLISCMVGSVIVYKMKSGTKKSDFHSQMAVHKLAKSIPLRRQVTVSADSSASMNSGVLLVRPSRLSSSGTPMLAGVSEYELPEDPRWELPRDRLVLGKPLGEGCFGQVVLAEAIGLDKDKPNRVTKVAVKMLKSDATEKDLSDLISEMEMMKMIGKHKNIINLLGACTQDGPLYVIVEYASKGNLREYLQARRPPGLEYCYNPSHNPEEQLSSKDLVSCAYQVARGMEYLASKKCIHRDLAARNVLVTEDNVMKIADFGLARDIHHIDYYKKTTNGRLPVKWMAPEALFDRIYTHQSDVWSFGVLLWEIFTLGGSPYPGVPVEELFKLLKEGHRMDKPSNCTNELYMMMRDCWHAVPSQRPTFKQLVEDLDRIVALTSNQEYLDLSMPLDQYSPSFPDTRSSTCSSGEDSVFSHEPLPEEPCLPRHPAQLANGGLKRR
FGFR4, sequence (P22455 22-802, species assumed): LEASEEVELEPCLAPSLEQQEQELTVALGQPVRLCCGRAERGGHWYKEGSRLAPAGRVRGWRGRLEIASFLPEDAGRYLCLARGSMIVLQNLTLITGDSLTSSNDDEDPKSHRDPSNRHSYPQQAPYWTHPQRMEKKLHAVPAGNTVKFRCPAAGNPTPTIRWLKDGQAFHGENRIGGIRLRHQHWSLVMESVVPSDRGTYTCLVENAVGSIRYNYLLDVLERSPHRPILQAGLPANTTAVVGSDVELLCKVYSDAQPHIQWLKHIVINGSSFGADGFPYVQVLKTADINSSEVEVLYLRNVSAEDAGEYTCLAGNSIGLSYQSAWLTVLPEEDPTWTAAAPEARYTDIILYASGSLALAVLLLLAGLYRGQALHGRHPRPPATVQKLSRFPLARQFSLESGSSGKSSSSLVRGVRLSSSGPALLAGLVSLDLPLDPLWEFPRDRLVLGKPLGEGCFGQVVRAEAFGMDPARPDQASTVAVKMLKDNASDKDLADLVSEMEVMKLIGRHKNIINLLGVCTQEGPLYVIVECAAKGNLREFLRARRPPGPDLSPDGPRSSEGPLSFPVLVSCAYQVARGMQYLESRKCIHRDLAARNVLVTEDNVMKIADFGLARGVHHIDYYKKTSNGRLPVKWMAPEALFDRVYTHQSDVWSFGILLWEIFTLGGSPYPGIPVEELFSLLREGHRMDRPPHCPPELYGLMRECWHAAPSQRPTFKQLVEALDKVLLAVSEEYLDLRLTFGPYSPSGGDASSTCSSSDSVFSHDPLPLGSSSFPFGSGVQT

For `COc1ccc(N(C)S(=O)(=O)c2c(F)c(F)c(F)c(F)c2F)cc1F` [Compound 4-12, 2,3,4,5,6-pentafluoro-N-(3-fluoro-4-methoxyphenyl)-N-methylbenzenesulfonamide], the IC50 [1] was 0.1 to 10 µM.
For `O=S(=O)(Nc1ccc(OC(F)F)c(F)c1)c1c(F)c(F)c(F)c(F)c1F` [Compound 4-4, N-(4-(difluoromethoxy)-3-fluorophenyl)-2,3,4,5,6-pentafluorobenzenesulfonamide], the “% inhibition of tubulin polymerization” value [2] was “B (B: 10-20%)”, the IC50 [3] was 0.1 to 10 µM and the IC50 [4] was 0.1 to 10 µM.
With `COc1ccc(NS(=O)(=O)c2c(F)c(F)c(F)c(F)c2F)cc1F` [Batabulin] the “% inhibition of tubulin polymerization” value [2] was “C (C > 20%)”, the IC50 [3] was at most 0.1 µM and the IC50 [4] was at most 0.1 µM. It also gave an IC50 [1] of at most 0.1 µM.
With `O=S(=O)(NCCNc1ncnc2[nH]ccc12)c1c(F)c(F)c(F)c(F)c1F` [Compound 5-10, N-(2-((7H-pyrrolo[2,3-d]pyrimidin-4-yl)amino)ethyl)-2,3,4,5,6-pentafluorobenzene sulfonamide] the “JAK3 (IC50, nM)” value [5] was “E (E: >1000 nM to ≤ 0,000 nM)”.
For `Nc1ncnc2c1c(-c1ccc(Oc3ccccc3)cc1)nn2[C@@H]1CCN(S(=O)(=O)c2c(F)c(F)c(F)c(F)c2F)C1` [Compound 5-5, (R)-1-(1-((perfluorophenyl)sulfonyl)pyrrolidin-3-yl)-3-(4-phenoxyphenyl)-1H-pyrazolo[3,4-d]pyrimidin-4-amine], the IC50 ([6]; Table 7) was 0.1 to 10 nM.
In the case of `O=S(=O)(Nc1ccc(OC(F)(F)F)c(F)c1)c1c(F)c(F)c(F)c(F)c1F` [Compound 4-1, 2,3,4,5,6-pentafluoro-N-(3-fluoro-4-(trifluoromethoxy)phenyl)benzenesulfonamide], the “% inhibition of tubulin polymerization” value [2] is reported as “B (B: 10-20%)”, the IC50 [3] is reported as 10 to 100 µM and the IC50 [4] is reported as 10 to 100 µM. The IC50 [1] was 10 to 100 µM.
With `O=S(=O)(Nc1ccc(O)c(F)c1)c1c(F)c(F)c(F)c(F)c1F` [Compound 4-3, 2,3,4,5,6-pentafluoro-N-(3-fluoro-4-hydroxyphenyl)benzenesulfonamide] the “% inhibition of tubulin polymerization” value [2] was “A (A: < 10%)” and the IC50 [3] was 0.1 to 10 µM.
Compound `C=CC(=O)N1CCC[C@@H](n2nc(-c3ccc(Oc4ccccc4)cc3)c3c(N)ncnc32)C1` [Ibrutinib, reference compound] has an IC50 ([7]; RL cells, read-out: IC50 in RL cells) of 10.3 µM, an IC50 ([7]; TABLE 9, read-out: RL (IC50)) of 10.3 µM and an IC50 ([7]; Table 14, RL human non-Hodgkin's lymphoma B cell line, read-out: RL (IC50)) of 10.3 µM. It also gave an IC50 [8] of 26.8 µM.
In the case of `COCCOc1ccc(Nc2ncc(F)c(NCCCNS(=O)(=O)c3c(F)c(F)c(F)c(F)c3F)n2)cc1` [Compound 5-7, 2,3,4,5,6-pentafluoro-N-(3-((5-fluoro-2-((4-(2-methoxyethoxy)phenyl)amino)pyrimidin-4-yl)amino)propyl)benzenesulfonamide], the “Percent residual BTK after 24 hours with test compound (5 μM)” value [9] is reported as 63%, the IC50 [10] is reported as 300 to 2000 nM and the IC50 [11] is reported as 300 to 2000 nM.
In the case of `O=S(=O)(Nc1ccc(OCF)c(F)c1)c1c(F)c(F)c(F)c(F)c1F` [Compound 4-6, 2,3,4,5,6-pentafluoro-N-(3-fluoro-4-(fluoromethoxy)phenyl)benzenesulfonamide], the “% inhibition of tubulin polymerization” value [2] is reported as “B (B: 10-20%)”, the IC50 [3] is reported as 0.1 to 10 µM and the IC50 [4] is reported as 0.1 to 10 µM. The IC50 [1] was 0.1 to 10 µM.
For `C[C@H]1CC[C@@H](Nc2ncnc3[nH]ccc23)CN1S(=O)(=O)c1c(F)c(F)c(F)c(F)c1F` [Compound 5-8, N-((3R,6S)-6-methyl-1-((perfluorophenyl)sulfonyl)piperidin-3-yl)-7H-pyrrolo[2,3-d]pyrimidin-4-amine], the “JAK3 (IC50, nM)” value [5] was “E (E: >1000 nM to ≤ 0,000 nM)”.
`O=C(c1ccc(Oc2ccccc2)cc1Cl)c1c[nH]c2ncnc(N[C@@H]3CC[C@@H](CO)OC3)c12` [ARQ-531] was tested, and the “enzyme activity after washout” value [12] was “recovered all of its activity”.
For `CN(CCNc1ncnc2[nH]ccc12)S(=O)(=O)c1c(F)c(F)c(F)c(F)c1F` [Compound 5-11, N-(2-((7H-pyrrolo[2,3-d]pyrimidin-4-yl)amino)ethyl)-2,3,4,5,6-pentafluoro-N-methylbenzenesulfonamide], the “JAK3 (IC50, nM)” value [5] was “E (E: >1000 nM to ≤ 0,000 nM)”.
In the case of `COCCOc1ccc(Nc2ncc(F)c(Nc3cccc(NS(=O)(=O)c4c(F)c(F)c(F)c(F)c4F)c3)n2)cc1` [Compound 5-15, 2,3,4,5,6-pentafluoro-N-(3-((5-fluoro-2-((4-(2-methoxyethoxy)phenyl)amino)pyrimidin-4-yl)amino)phenyl)benzenesulfonamide], the IC50 ([6]; Table 8) is reported as 100 to 1000 nM, the “Percent residual BTK after 24 hours with test compound (5 μM)” value [9] is reported as 75% and the IC50 [10] is reported as 0.1 to 10 nM. For the same compound, the IC50 [11] was 10 to 300 nM.
